Test results reported in the OligoGym collection.
Oligonucleotides are given in HELM: sugar(base)linkage, 5' to 3'; d 2'-deoxyribose, r ribose, m 2'-O-methylribose, p phosphate. ss, as = sense and antisense strand

biological target: TMEM63B; assay: reporter assay of Huesken 2005; details: siRNA
Also: test concentration or dose not given here.

Substance	normalised inhibition (eCFP-eYFP dual reporter)
RNA1{r(G)p.r(A)p.r(C)p.r(U)p.r(U)p.r(U)p.r(G)p.r(A)p.r(C)p.r(C)p.r(A)p.r(A)p.r(A)p.r(G)p.r(G)p.r(G)p.r(A)p.r(C)p.r(A)p.d(T)p.d(T)}|RNA2{r(U)p.r(G)p.r(U)p.r(C)p.r(C)p.r(C)p.r(U)p.r(U)p.r(U)p.r(G)p.r(G)p.r(U)p.r(C)p.r(A)p.r(A)p.r(A)p.r(G)p.r(U)p.r(C)p.d(A)p.d(A)}$$$RNA1{StrandType:ss}|RNA2{StrandType:as}$	89.5%
RNA1{r(G)p.r(A)p.r(G)p.r(A)p.r(G)p.r(G)p.r(C)p.r(G)p.r(C)p.r(A)p.r(A)p.r(C)p.r(G)p.r(U)p.r(G)p.r(A)p.r(A)p.r(G)p.r(C)p.d(T)p.d(T)}|RNA2{r(G)p.r(C)p.r(U)p.r(U)p.r(C)p.r(A)p.r(C)p.r(G)p.r(U)p.r(U)p.r(G)p.r(C)p.r(G)p.r(C)p.r(C)p.r(U)p.r(C)p.r(U)p.r(C)p.d(G)p.d(G)}$$$RNA1{StrandType:ss}|RNA2{StrandType:as}$	56.8%
RNA1{r(G)p.r(A)p.r(G)p.r(G)p.r(C)p.r(G)p.r(C)p.r(A)p.r(A)p.r(C)p.r(G)p.r(U)p.r(G)p.r(A)p.r(A)p.r(G)p.r(C)p.r(G)p.r(G)p.d(T)p.d(T)}|RNA2{r(C)p.r(C)p.r(G)p.r(C)p.r(U)p.r(U)p.r(C)p.r(A)p.r(C)p.r(G)p.r(U)p.r(U)p.r(G)p.r(C)p.r(G)p.r(C)p.r(C)p.r(U)p.r(C)p.d(T)p.d(C)}$$$RNA1{StrandType:ss}|RNA2{StrandType:as}$	59.5%
RNA1{r(G)p.r(A)p.r(U)p.r(A)p.r(C)p.r(U)p.r(G)p.r(U)p.r(G)p.r(G)p.r(A)p.r(C)p.r(C)p.r(C)p.r(C)p.r(A)p.r(G)p.r(A)p.r(A)p.d(T)p.d(T)}|RNA2{r(U)p.r(U)p.r(C)p.r(U)p.r(G)p.r(G)p.r(G)p.r(G)p.r(U)p.r(C)p.r(C)p.r(A)p.r(C)p.r(A)p.r(G)p.r(U)p.r(A)p.r(U)p.r(C)p.d(T)p.d(G)}$$$RNA1{StrandType:ss}|RNA2{StrandType:as}$	73.8%
RNA1{r(G)p.r(C)p.r(A)p.r(A)p.r(C)p.r(G)p.r(C)p.r(C)p.r(A)p.r(U)p.r(G)p.r(G)p.r(A)p.r(C)p.r(C)p.r(U)p.r(G)p.r(C)p.r(U)p.d(T)p.d(T)}|RNA2{r(A)p.r(G)p.r(C)p.r(A)p.r(G)p.r(G)p.r(U)p.r(C)p.r(C)p.r(A)p.r(U)p.r(G)p.r(G)p.r(C)p.r(G)p.r(U)p.r(U)p.r(G)p.r(C)p.d(C)p.d(G)}$$$RNA1{StrandType:ss}|RNA2{StrandType:as}$	71.1%
RNA1{r(G)p.r(C)p.r(A)p.r(A)p.r(C)p.r(G)p.r(U)p.r(G)p.r(A)p.r(A)p.r(G)p.r(C)p.r(G)p.r(G)p.r(C)p.r(A)p.r(U)p.r(C)p.r(A)p.d(T)p.d(T)}|RNA2{r(U)p.r(G)p.r(A)p.r(U)p.r(G)p.r(C)p.r(C)p.r(G)p.r(C)p.r(U)p.r(U)p.r(C)p.r(A)p.r(C)p.r(G)p.r(U)p.r(U)p.r(G)p.r(C)p.d(G)p.d(C)}$$$RNA1{StrandType:ss}|RNA2{StrandType:as}$	72.4%
RNA1{r(G)p.r(C)p.r(A)p.r(C)p.r(A)p.r(A)p.r(G)p.r(U)p.r(G)p.r(C)p.r(U)p.r(A)p.r(C)p.r(A)p.r(C)p.r(U)p.r(U)p.r(U)p.r(C)p.d(T)p.d(T)}|RNA2{r(G)p.r(A)p.r(A)p.r(A)p.r(G)p.r(U)p.r(G)p.r(U)p.r(A)p.r(G)p.r(C)p.r(A)p.r(C)p.r(U)p.r(U)p.r(G)p.r(U)p.r(G)p.r(C)p.d(A)p.d(T)}$$$RNA1{StrandType:ss}|RNA2{StrandType:as}$	83.6%
RNA1{r(G)p.r(C)p.r(A)p.r(C)p.r(A)p.r(U)p.r(C)p.r(A)p.r(U)p.r(C)p.r(G)p.r(G)p.r(G)p.r(C)p.r(U)p.r(G)p.r(C)p.r(U)p.r(G)p.d(T)p.d(T)}|RNA2{r(C)p.r(A)p.r(G)p.r(C)p.r(A)p.r(G)p.r(C)p.r(C)p.r(C)p.r(G)p.r(A)p.r(U)p.r(G)p.r(A)p.r(U)p.r(G)p.r(U)p.r(G)p.r(C)p.d(C)p.d(G)}$$$RNA1{StrandType:ss}|RNA2{StrandType:as}$	69.9%
RNA1{r(G)p.r(C)p.r(A)p.r(U)p.r(U)p.r(U)p.r(U)p.r(G)p.r(A)p.r(G)p.r(G)p.r(A)p.r(A)p.r(G)p.r(C)p.r(C)p.r(U)p.r(A)p.r(C)p.d(T)p.d(T)}|RNA2{r(G)p.r(U)p.r(A)p.r(G)p.r(G)p.r(C)p.r(U)p.r(U)p.r(C)p.r(C)p.r(U)p.r(C)p.r(A)p.r(A)p.r(A)p.r(A)p.r(U)p.r(G)p.r(C)p.d(T)p.d(T)}$$$RNA1{StrandType:ss}|RNA2{StrandType:as}$	87.3%
RNA1{r(G)p.r(C)p.r(C)p.r(U)p.r(A)p.r(C)p.r(C)p.r(A)p.r(U)p.r(G)p.r(A)p.r(U)p.r(C)p.r(A)p.r(A)p.r(C)p.r(C)p.r(C)p.r(C)p.d(T)p.d(T)}|RNA2{r(G)p.r(G)p.r(G)p.r(G)p.r(U)p.r(U)p.r(G)p.r(A)p.r(U)p.r(C)p.r(A)p.r(U)p.r(G)p.r(G)p.r(U)p.r(A)p.r(G)p.r(G)p.r(C)p.d(A)p.d(C)}$$$RNA1{StrandType:ss}|RNA2{StrandType:as}$	39.6%
RNA1{r(G)p.r(C)p.r(C)p.r(U)p.r(A)p.r(C)p.r(G)p.r(C)p.r(C)p.r(U)p.r(G)p.r(G)p.r(A)p.r(U)p.r(G)p.r(A)p.r(U)p.r(G)p.r(U)p.d(T)p.d(T)}|RNA2{r(A)p.r(C)p.r(A)p.r(U)p.r(C)p.r(A)p.r(U)p.r(C)p.r(C)p.r(A)p.r(G)p.r(G)p.r(C)p.r(G)p.r(U)p.r(A)p.r(G)p.r(G)p.r(C)p.d(T)p.d(G)}$$$RNA1{StrandType:ss}|RNA2{StrandType:as}$	72.3%
RNA1{r(G)p.r(C)p.r(C)p.r(U)p.r(U)p.r(U)p.r(G)p.r(U)p.r(C)p.r(A)p.r(C)p.r(C)p.r(U)p.r(U)p.r(C)p.r(C)p.r(A)p.r(C)p.r(A)p.d(T)p.d(T)}|RNA2{r(U)p.r(G)p.r(U)p.r(G)p.r(G)p.r(A)p.r(A)p.r(G)p.r(G)p.r(U)p.r(G)p.r(A)p.r(C)p.r(A)p.r(A)p.r(A)p.r(G)p.r(G)p.r(C)p.d(C)p.d(A)}$$$RNA1{StrandType:ss}|RNA2{StrandType:as}$	72.5%
RNA1{r(G)p.r(C)p.r(G)p.r(A)p.r(A)p.r(A)p.r(U)p.r(A)p.r(C)p.r(A)p.r(U)p.r(C)p.r(G)p.r(C)p.r(U)p.r(C)p.r(A)p.r(G)p.r(G)p.d(T)p.d(T)}|RNA2{r(C)p.r(C)p.r(U)p.r(G)p.r(A)p.r(G)p.r(C)p.r(G)p.r(A)p.r(U)p.r(G)p.r(U)p.r(A)p.r(U)p.r(U)p.r(U)p.r(C)p.r(G)p.r(C)p.d(A)p.d(G)}$$$RNA1{StrandType:ss}|RNA2{StrandType:as}$	40.2%
RNA1{r(G)p.r(C)p.r(G)p.r(U)p.r(C)p.r(U)p.r(U)p.r(C)p.r(A)p.r(C)p.r(G)p.r(G)p.r(U)p.r(G)p.r(G)p.r(U)p.r(C)p.r(A)p.r(U)p.d(T)p.d(T)}|RNA2{r(A)p.r(U)p.r(G)p.r(A)p.r(C)p.r(C)p.r(A)p.r(C)p.r(C)p.r(G)p.r(U)p.r(G)p.r(A)p.r(A)p.r(G)p.r(A)p.r(C)p.r(G)p.r(C)p.d(A)p.d(C)}$$$RNA1{StrandType:ss}|RNA2{StrandType:as}$	75.9%
RNA1{r(G)p.r(C)p.r(U)p.r(A)p.r(U)p.r(G)p.r(C)p.r(A)p.r(C)p.r(G)p.r(G)p.r(G)p.r(G)p.r(A)p.r(C)p.r(A)p.r(G)p.r(C)p.r(C)p.d(T)p.d(T)}|RNA2{r(G)p.r(G)p.r(C)p.r(U)p.r(G)p.r(U)p.r(C)p.r(C)p.r(C)p.r(C)p.r(G)p.r(U)p.r(G)p.r(C)p.r(A)p.r(U)p.r(A)p.r(G)p.r(C)p.d(T)p.d(G)}$$$RNA1{StrandType:ss}|RNA2{StrandType:as}$	73.2%
RNA1{r(G)p.r(C)p.r(U)p.r(G)p.r(C)p.r(U)p.r(G)p.r(A)p.r(A)p.r(G)p.r(C)p.r(A)p.r(C)p.r(C)p.r(U)p.r(G)p.r(G)p.r(U)p.r(A)p.d(T)p.d(T)}|RNA2{r(U)p.r(A)p.r(C)p.r(C)p.r(A)p.r(G)p.r(G)p.r(U)p.r(G)p.r(C)p.r(U)p.r(U)p.r(C)p.r(A)p.r(G)p.r(C)p.r(A)p.r(G)p.r(C)p.d(A)p.d(T)}$$$RNA1{StrandType:ss}|RNA2{StrandType:as}$	82.4%
RNA1{r(G)p.r(C)p.r(U)p.r(U)p.r(U)p.r(G)p.r(G)p.r(G)p.r(A)p.r(G)p.r(A)p.r(A)p.r(C)p.r(C)p.r(A)p.r(C)p.r(C)p.r(A)p.r(U)p.d(T)p.d(T)}|RNA2{r(A)p.r(U)p.r(G)p.r(G)p.r(U)p.r(G)p.r(G)p.r(U)p.r(U)p.r(C)p.r(U)p.r(C)p.r(C)p.r(C)p.r(A)p.r(A)p.r(A)p.r(G)p.r(C)p.d(T)p.d(G)}$$$RNA1{StrandType:ss}|RNA2{StrandType:as}$	75.8%
RNA1{r(G)p.r(G)p.r(A)p.r(U)p.r(G)p.r(A)p.r(U)p.r(C)p.r(U)p.r(G)p.r(G)p.r(U)p.r(G)p.r(A)p.r(A)p.r(G)p.r(C)p.r(G)p.r(G)p.d(T)p.d(T)}|RNA2{r(C)p.r(C)p.r(G)p.r(C)p.r(U)p.r(U)p.r(C)p.r(A)p.r(C)p.r(C)p.r(A)p.r(G)p.r(A)p.r(U)p.r(C)p.r(A)p.r(U)p.r(C)p.r(C)p.d(T)p.d(C)}$$$RNA1{StrandType:ss}|RNA2{StrandType:as}$	63.9%
RNA1{r(G)p.r(G)p.r(A)p.r(U)p.r(G)p.r(A)p.r(U)p.r(G)p.r(A)p.r(G)p.r(A)p.r(U)p.r(C)p.r(C)p.r(G)p.r(G)p.r(G)p.r(A)p.r(C)p.d(T)p.d(T)}|RNA2{r(G)p.r(U)p.r(C)p.r(C)p.r(C)p.r(G)p.r(G)p.r(A)p.r(U)p.r(C)p.r(U)p.r(C)p.r(A)p.r(U)p.r(C)p.r(A)p.r(U)p.r(C)p.r(C)p.d(T)p.d(T)}$$$RNA1{StrandType:ss}|RNA2{StrandType:as}$	89.3%
RNA1{r(G)p.r(G)p.r(C)p.r(C)p.r(A)p.r(A)p.r(G)p.r(C)p.r(U)p.r(G)p.r(G)p.r(A)p.r(C)p.r(A)p.r(A)p.r(G)p.r(A)p.r(A)p.r(G)p.d(T)p.d(T)}|RNA2{r(C)p.r(U)p.r(U)p.r(C)p.r(U)p.r(U)p.r(G)p.r(U)p.r(C)p.r(C)p.r(A)p.r(G)p.r(C)p.r(U)p.r(U)p.r(G)p.r(G)p.r(C)p.r(C)p.d(G)p.d(G)}$$$RNA1{StrandType:ss}|RNA2{StrandType:as}$	65%
